Assay results as given in ChEMBL document CHEMBL3991601, “The target landscape of clinical kinase drugs” (Science, 2017).
Active and inactive are the calls of the source. Rule as the data show it, for most assays here: actives have a measured Kd and inactives only a lower limit.

What was measured:
ADP/ATP translocase 3 = target: T1, ADP/ATP translocase 3 (Homo sapiens, UniProt P12236)
T1 sequence (P12236 whole entry): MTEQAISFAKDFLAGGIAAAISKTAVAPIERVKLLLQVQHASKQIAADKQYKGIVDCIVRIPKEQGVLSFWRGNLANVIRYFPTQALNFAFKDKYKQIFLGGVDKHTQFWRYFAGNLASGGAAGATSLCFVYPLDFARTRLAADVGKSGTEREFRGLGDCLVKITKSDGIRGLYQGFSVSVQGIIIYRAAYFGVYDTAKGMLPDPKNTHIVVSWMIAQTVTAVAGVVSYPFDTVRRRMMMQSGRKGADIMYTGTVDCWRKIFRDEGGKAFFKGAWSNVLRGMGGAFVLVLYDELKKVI

[1] = target: Mitogen-activated protein kinase kinase kinase kinase 4 (Homo sapiens, UniProt O95819)
[2] = target: T2, Cytochrome c1, heme protein, mitochondrial (Homo sapiens, UniProt P08574)
T2 sequence (P08574 whole entry): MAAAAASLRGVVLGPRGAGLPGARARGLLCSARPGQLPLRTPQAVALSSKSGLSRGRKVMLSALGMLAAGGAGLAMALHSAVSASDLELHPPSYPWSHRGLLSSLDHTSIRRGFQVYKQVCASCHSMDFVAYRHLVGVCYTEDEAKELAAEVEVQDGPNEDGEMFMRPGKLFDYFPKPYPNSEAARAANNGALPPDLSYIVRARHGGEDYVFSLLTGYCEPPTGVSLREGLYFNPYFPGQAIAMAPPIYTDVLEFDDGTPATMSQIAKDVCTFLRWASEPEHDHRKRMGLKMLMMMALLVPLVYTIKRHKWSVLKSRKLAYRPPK

[3] = target: Myosin light chain kinase, smooth muscle (Homo sapiens, UniProt Q15746)
[4] = target: T3, Serine/threonine-protein kinase TBK1 (Homo sapiens, UniProt Q9UHD2)
T3 sequence (Q9UHD2 whole entry): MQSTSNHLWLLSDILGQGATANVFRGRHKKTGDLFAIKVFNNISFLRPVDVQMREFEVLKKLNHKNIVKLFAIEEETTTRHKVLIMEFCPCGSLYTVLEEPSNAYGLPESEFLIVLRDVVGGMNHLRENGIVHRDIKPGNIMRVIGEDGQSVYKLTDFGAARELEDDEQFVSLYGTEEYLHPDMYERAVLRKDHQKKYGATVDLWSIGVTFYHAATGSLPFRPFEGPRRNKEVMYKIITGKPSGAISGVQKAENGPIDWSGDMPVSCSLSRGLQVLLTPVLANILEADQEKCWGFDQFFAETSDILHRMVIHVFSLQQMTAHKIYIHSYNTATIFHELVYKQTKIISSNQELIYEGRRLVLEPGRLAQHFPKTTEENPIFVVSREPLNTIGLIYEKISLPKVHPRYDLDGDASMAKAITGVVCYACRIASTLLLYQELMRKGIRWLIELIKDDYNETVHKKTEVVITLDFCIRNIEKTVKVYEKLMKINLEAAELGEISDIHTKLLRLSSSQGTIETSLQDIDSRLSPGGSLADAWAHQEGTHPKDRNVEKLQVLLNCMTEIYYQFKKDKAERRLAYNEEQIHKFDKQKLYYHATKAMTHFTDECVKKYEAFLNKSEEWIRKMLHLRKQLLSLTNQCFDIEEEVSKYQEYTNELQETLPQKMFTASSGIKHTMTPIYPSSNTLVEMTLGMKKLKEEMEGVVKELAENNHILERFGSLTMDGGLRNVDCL

Ephrin type-B receptor 2 = target: T4, Ephrin type-B receptor 2 (Homo sapiens, UniProt P29323)
T4 sequence (P29323 whole entry): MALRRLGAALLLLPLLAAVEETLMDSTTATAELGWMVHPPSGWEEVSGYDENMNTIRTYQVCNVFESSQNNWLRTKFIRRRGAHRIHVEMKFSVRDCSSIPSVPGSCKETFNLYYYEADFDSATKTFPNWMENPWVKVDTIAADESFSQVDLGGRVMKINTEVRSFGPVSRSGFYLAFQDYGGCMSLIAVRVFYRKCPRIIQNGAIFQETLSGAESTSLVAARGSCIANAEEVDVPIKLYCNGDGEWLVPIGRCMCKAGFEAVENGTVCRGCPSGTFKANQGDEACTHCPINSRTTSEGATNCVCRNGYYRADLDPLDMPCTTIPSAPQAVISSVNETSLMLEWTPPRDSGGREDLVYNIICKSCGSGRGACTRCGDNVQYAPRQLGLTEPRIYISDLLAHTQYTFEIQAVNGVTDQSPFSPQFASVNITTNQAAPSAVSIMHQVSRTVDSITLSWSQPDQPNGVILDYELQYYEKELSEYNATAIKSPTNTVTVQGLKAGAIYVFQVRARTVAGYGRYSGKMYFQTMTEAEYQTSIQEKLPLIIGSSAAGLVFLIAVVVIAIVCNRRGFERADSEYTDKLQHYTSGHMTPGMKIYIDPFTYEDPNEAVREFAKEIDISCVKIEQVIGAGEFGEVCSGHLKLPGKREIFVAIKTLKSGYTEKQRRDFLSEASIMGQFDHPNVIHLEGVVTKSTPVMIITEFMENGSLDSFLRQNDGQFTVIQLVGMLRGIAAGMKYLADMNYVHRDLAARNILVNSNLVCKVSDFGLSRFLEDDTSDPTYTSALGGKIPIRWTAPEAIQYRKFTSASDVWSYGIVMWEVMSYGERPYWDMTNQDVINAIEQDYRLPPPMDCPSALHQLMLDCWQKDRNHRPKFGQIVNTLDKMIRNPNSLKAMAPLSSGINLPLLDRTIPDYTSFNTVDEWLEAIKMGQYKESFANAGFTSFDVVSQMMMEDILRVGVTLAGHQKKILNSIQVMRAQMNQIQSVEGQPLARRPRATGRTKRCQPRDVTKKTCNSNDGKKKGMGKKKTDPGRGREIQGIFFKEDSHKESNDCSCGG

[5] = target: T5, Calcium/calmodulin-dependent protein kinase type IV (Homo sapiens, UniProt Q16566)
T5 sequence (Q16566 whole entry): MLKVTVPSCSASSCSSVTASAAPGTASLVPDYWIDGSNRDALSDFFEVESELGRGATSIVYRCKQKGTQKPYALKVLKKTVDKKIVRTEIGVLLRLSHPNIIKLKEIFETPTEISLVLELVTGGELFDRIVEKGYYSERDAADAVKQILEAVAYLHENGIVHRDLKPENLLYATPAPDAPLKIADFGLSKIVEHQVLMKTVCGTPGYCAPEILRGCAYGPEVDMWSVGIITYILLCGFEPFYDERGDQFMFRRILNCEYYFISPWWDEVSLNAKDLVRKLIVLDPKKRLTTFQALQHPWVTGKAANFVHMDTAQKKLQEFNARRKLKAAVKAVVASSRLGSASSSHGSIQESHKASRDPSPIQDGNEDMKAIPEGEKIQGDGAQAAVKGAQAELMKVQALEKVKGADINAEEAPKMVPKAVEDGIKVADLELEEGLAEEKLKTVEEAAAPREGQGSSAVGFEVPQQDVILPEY

Measured: Kd
Also: in the data inactive means no Kd found up to 30 µM.

Chain of Mitogen-activated protein kinase kinase kinase kinase 4 (O95819 whole entry): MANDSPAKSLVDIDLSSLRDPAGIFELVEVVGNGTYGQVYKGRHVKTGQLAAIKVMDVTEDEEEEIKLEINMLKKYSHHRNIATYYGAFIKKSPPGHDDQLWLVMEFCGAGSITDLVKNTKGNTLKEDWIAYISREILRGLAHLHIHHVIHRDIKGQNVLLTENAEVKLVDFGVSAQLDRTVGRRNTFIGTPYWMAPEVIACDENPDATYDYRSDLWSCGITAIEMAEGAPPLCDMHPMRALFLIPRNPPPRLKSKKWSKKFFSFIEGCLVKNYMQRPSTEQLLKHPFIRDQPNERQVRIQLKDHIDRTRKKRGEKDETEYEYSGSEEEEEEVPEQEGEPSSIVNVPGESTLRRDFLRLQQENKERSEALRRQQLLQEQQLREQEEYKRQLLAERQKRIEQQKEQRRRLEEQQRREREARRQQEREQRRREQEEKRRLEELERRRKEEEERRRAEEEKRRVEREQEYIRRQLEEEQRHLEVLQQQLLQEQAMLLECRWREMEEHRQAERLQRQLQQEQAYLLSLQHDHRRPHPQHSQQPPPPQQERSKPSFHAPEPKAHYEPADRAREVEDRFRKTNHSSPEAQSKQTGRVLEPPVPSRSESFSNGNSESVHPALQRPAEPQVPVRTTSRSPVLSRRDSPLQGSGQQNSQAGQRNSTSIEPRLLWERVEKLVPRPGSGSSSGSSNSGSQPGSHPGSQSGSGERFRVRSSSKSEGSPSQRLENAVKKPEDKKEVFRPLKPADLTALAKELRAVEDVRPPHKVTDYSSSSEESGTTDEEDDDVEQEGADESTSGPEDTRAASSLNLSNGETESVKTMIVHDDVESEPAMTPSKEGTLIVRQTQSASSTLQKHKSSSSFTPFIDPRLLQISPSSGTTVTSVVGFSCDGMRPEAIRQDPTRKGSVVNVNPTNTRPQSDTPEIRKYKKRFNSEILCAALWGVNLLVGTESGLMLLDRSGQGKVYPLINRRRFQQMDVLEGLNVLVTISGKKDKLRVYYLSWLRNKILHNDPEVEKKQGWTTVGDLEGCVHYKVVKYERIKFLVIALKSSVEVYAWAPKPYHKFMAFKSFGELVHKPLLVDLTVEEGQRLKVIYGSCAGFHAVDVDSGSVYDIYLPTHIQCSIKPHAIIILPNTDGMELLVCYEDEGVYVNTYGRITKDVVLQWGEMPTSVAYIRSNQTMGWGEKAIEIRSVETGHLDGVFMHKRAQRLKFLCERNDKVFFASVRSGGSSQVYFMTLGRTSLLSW
Chain of Myosin light chain kinase, smooth muscle (Q15746 whole entry): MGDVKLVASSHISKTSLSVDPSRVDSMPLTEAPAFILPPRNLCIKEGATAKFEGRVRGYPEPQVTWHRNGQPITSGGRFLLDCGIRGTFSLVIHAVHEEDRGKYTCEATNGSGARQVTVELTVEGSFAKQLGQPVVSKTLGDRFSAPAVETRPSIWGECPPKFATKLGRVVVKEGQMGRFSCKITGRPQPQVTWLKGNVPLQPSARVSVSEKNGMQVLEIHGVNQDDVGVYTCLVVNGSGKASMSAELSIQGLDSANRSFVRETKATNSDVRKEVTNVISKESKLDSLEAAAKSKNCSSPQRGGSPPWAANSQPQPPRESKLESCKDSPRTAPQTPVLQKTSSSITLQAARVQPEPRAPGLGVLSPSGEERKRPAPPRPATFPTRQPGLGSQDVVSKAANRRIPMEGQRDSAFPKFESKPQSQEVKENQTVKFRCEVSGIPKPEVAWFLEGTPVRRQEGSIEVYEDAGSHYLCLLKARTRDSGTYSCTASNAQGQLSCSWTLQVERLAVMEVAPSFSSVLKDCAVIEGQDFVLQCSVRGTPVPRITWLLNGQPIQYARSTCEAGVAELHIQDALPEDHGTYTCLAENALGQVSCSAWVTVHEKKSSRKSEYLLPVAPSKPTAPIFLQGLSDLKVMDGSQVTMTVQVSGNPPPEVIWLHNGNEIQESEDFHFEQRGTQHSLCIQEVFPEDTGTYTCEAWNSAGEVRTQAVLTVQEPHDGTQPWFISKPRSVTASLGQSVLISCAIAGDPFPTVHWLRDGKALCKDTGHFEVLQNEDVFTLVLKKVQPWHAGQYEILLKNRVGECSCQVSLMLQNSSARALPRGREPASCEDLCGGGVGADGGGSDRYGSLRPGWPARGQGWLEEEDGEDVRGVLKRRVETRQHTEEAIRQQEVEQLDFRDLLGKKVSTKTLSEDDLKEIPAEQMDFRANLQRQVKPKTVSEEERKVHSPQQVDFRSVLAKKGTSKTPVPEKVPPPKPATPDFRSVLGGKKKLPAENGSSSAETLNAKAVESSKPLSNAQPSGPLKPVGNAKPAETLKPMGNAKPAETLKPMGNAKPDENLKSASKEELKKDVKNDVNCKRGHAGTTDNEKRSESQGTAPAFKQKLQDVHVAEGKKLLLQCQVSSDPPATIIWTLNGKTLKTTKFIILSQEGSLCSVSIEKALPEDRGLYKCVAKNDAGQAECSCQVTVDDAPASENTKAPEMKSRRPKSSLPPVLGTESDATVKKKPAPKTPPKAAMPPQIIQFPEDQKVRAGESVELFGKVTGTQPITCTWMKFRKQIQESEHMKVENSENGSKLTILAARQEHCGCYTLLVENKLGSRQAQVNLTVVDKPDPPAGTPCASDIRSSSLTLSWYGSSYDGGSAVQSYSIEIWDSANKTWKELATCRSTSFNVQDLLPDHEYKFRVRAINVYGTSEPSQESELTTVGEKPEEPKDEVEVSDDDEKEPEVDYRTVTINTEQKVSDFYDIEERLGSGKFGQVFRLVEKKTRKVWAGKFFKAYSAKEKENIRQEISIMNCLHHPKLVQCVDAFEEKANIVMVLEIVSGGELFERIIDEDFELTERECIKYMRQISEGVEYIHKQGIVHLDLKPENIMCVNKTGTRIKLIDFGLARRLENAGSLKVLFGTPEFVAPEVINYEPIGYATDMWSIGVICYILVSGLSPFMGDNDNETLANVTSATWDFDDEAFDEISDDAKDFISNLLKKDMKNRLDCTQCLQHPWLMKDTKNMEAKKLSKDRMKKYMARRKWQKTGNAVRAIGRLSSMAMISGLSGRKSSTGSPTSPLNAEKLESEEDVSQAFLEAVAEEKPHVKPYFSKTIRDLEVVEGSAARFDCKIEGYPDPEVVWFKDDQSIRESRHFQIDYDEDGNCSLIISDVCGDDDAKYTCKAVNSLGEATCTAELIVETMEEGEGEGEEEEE

CC[C@@H]1C(=O)N(C)c2cnc(Nc3ccc(C(=O)N[C@H]4CC[C@H](N5CCN(CC6CC6)CC5)CC4)cc3OC)nc2N1C(C)C [VOLASERTIB]
inactive: ADP/ATP translocase 3 > 30 µM | [1] > 30 µM | [2] > 30 µM | [3] > 30 µM | [4] > 30 µM | Ephrin type-B receptor 2 > 30 µM | [5] > 30 µM

CN1CC[C@@H](c2c(O)cc(O)c3c(=O)cc(-c4ccccc4Cl)oc23)[C@@H]1CO
inactive: ADP/ATP translocase 3 > 30 µM | [1] > 30 µM | [2] > 30 µM | [3] > 30 µM | [4] > 30 µM | Ephrin type-B receptor 2 > 30 µM | [5] > 30 µM

Cc1ccc(S(=O)(=O)Nc2nc3ccccc3nc2Nc2ccc3nsnc3c2)cc1
inactive: ADP/ATP translocase 3 > 30 µM | [1] > 30 µM | [2] > 30 µM | [3] > 30 µM | [4] > 30 µM | Ephrin type-B receptor 2 > 30 µM | [5] > 30 µM

COc1cc2nccc(Oc3ccc(NC(=O)NC4CC4)c(Cl)c3)c2cc1C(N)=O [LENVATINIB]
inactive: ADP/ATP translocase 3 > 30 µM | [1] > 30 µM | [2] > 30 µM | [3] > 30 µM | [4] > 30 µM | Ephrin type-B receptor 2 > 30 µM | [5] > 30 µM

COC(=O)N[C@@H](C)CNc1nccc(-c2cn(C(C)C)nc2-c2cc(Cl)cc(NS(C)(=O)=O)c2F)n1 [ENCORAFENIB]
inactive: ADP/ATP translocase 3 > 30 µM | [1] > 30 µM | [2] > 30 µM | [3] > 30 µM | [4] > 30 µM | Ephrin type-B receptor 2 > 30 µM | [5] > 30 µM

COCCNCc1ccc(-c2cc3nccc(Oc4ccc(NC(=S)NC(=O)Cc5ccc(F)cc5)cc4F)c3s2)nc1 [GLESATINIB]
inactive: ADP/ATP translocase 3 > 30 µM | [2] > 30 µM | [3] > 30 µM | [4] > 30 µM | Ephrin type-B receptor 2 > 30 µM | [5] > 30 µM
0.6 µM: [1]

CCS(=O)(=O)N1CC(CC#N)(n2cc(-c3ncnc4[nH]ccc34)cn2)C1 [BARICITINIB]
inactive: ADP/ATP translocase 3 > 30 µM | [1] > 30 µM | [2] > 30 µM | [3] > 30 µM | [4] > 30 µM | Ephrin type-B receptor 2 > 30 µM | [5] > 30 µM

Cc1c(F)cc(C(=O)NC2CC2)cc1-c1ccc(C(=O)NCC(C)(C)C)cn1 [LOSMAPIMOD]
inactive: ADP/ATP translocase 3 > 30 µM | [1] > 30 µM | [2] > 30 µM | [3] > 30 µM | [4] > 30 µM | Ephrin type-B receptor 2 > 30 µM | [5] > 30 µM

CO[C@H]1C[C@@H]2CC[C@@H](C)[C@@](O)(O2)C(=O)C(=O)N2CCCC[C@H]2C(=O)O[C@H]([C@H](C)C[C@@H]2CC[C@@H](OCCO)[C@H](OC)C2)CC(=O)[C@H](C)/C=C(\C)[C@@H](O)[C@@H](OC)C(=O)[C@H](C)C[C@H](C)/C=C/C=C/C=C/1C [EVEROLIMUS]
inactive: ADP/ATP translocase 3 > 30 µM | [1] > 30 µM | [2] > 30 µM | [3] > 30 µM | [4] > 30 µM | Ephrin type-B receptor 2 > 30 µM | [5] > 30 µM

CCN1CCN(Cc2ccc(-c3cc4c(N[C@H](C)c5ccccc5)ncnc4[nH]3)cc2)CC1 [AEE-788]
inactive: ADP/ATP translocase 3 > 30 µM | [2] > 30 µM | [3] > 30 µM | [4] > 30 µM | Ephrin type-B receptor 2 > 30 µM | [5] > 30 µM
active: [1] 7.98 µM

CC(=O)Nc1cccc(-n2c(=O)n(C3CC3)c(=O)c3c(Nc4ccc(I)cc4F)n(C)c(=O)c(C)c32)c1 [TRAMETINIB]
inactive: ADP/ATP translocase 3 > 30 µM | [1] > 30 µM | [2] > 30 µM | [3] > 30 µM | [4] > 30 µM | Ephrin type-B receptor 2 > 30 µM | [5] > 30 µM

O=C(O)[C@]1(Cc2cccc(Nc3nccs3)n2)CC[C@@H](Oc2cccc(Cl)c2F)CC1 [MK-5108]
inactive: ADP/ATP translocase 3 > 30 µM | [1] > 30 µM | [2] > 30 µM | [3] > 30 µM | [4] > 30 µM | Ephrin type-B receptor 2 > 30 µM | [5] > 30 µM

C1=C/COCc2cc(ccc2OCCN2CCCC2)Nc2nccc(n2)-c2cccc(c2)COC/1 [PACRITINIB]
inactive: ADP/ATP translocase 3 > 30 µM | [2] > 30 µM | [3] > 30 µM | Ephrin type-B receptor 2 > 30 µM | [5] > 30 µM
active: [1] 0.293 µM | [4] 49.6 µM

Cc1ccc(NC(=O)c2ccc(CN3CC[C@H](N(C)C)C3)c(C(F)(F)F)c2)cc1Nc1nccc(-c2cncnc2)n1 [BAFETINIB]
active: Ephrin type-B receptor 2 53.2 µM
1.21 µM: [3]
inactive: ADP/ATP translocase 3 > 30 µM | [1] > 30 µM | [2] > 30 µM | [4] > 30 µM | [5] > 30 µM

O=C(Nc1ccc(-c2ccnc(Nc3ccc(N4CCOCC4)cc3)n2)cc1)C1CCCN1 (configuration not stated) [XL-019]
active: [4] 0.561 µM
inactive: ADP/ATP translocase 3 > 30 µM | [1] > 30 µM | [2] > 30 µM | [3] > 30 µM | Ephrin type-B receptor 2 > 30 µM | [5] > 30 µM

O=C(c1ccc(F)c(F)c1Nc1ccc(I)cc1F)N1CC(O)([C@@H]2CCCCN2)C1 [COBIMETINIB]
inactive: ADP/ATP translocase 3 > 30 µM | [1] > 30 µM | [2] > 30 µM | [3] > 30 µM | [4] > 30 µM | Ephrin type-B receptor 2 > 30 µM | [5] > 30 µM
